# Results taken from US9908912B2, “Triclosan derivatives and uses thereof” (priority 2012, dated 2018).
# Columns and labels:
# [1] = system: Kleb. aerogenes NCTC 88167; test: MIC in Nutrient Broth No. 2; type: cell-based, Klebsiella aerogenes; conditions: Nutrient Broth No. 2
# Method: (§1) Bacteria species as indicated in Table 1 were incubated for approximately 24 hours at 37° C.
# (§2) The tests were repeated with the addition of inducers. Methyl glycoside was the main inducer used, but other suitable inducers include isopropyl-β-D-thiogalactopyranoside, p-nitrophenyl-α-L-arabinopyranoside and p-nitrophenyl-β-D-xylopyranoside. Concentration of inducer in all cases was 100 μg/ml.
# Ent. aerogenes = test: MIC in Nutrient Agar; type: cell-based, Enterobacter aerogenes; conditions: Nutrient Agar containing 0.1 μg/ml of inducer; 37° C., 24 hours
# Method: (§3) The triclosan-glycosides were added to Nutrient Agar (Oxoid CM0003; Thermofisher Scientific) and organisms were transferred onto the plates surface using a multi-point inoculation device (Oxoid Cathra, Thermofisher Scientific). The latter is essentially a metal plate containing a number of needles. Each needle tip (usually 36 per plate) dips into an organism suspension (in phosphate buffered saline; PBS) and the needles are then moved over the agar plate and lowered onto its surface. In this way the growth of colonies of up to 36 different organisms can be observed on one plate.
# (§4) Nutrient Agar No. 2 was prepared according to the manufacturers instructions, autoclaved and cooled to 50° C. Test compounds were then added as filter sterilised solutions (50:50 deionised water:ethanol), to give final concentrations from 256 μg/ml to 0 μg/ml in doubling dilutions. […] The mixtures were swirled then four plates (25 ml molten agar) were poured for each concentration. Plates were dried in a laminar flow cabinet then inoculated with overnight cultures of organisms that had been decimally diluted twice in sterile saline solution (approximately 10^7 cfu/ml) using a multi-point inoculator. Plates were then incubated at 37° C. for 24 hours. MICs were determined as the concentration at which no growth was observed.
# Ser. marcescens = test: MIC in Nutrient Agar; type: cell-based, Serratia marcescens; conditions: Nutrient Agar containing 0.1 μg/ml of inducer; 37° C., 24 hours
# Method: as §3, §4
# [2] = system: Kleb. pneumoniae ATCC 10031; test: MIC in Nutrient Broth No. 2; type: cell-based, Klebsiella pneumoniae; conditions: Nutrient Broth No. 2
# Method: as §1, §2
# [3] = system: Bacteria species as indicated in Table 1; test: MIC in Nutrient Broth No. 2 (over organisms of Table 1); type: cell-based; conditions: all strains of Citrobacter freundii, Enterobacter cloacae, Escherichia coli, Escherichia hermanii, Hafnia alvei, Klebsiella, Proteus, Salmonella, Staphylococcus
# Method: as §1, §2
# Str. pneumoniae = test: MIC in Nutrient Agar; type: cell-based, Streptococcus pneumoniae; conditions: Nutrient Agar containing 0.1 μg/ml of inducer; 37° C., 24 hours
# Method: as §3, §4
# [4] = system: Staph. haemolyticus OCC 2223; test: MIC in Nutrient Broth No. 2; type: cell-based, Staphylococcus haemolyticus; conditions: Nutrient Broth No. 2
# Method: as §1, §2
# Ent. faecium = test: MIC in Nutrient Agar; type: cell-based, Enterococcus faecium; conditions: Nutrient Agar containing 0.1 μg/ml of inducer; 37° C., 24 hours
# Method: as §3, §4
# Kleb. pneumoniae = test: MIC in Nutrient Agar; type: cell-based, Klebsiella pneumoniae; conditions: Nutrient Agar containing 0.1 μg/ml of inducer; 37° C., 24 hours
# Method: as §3, §4
# [5] = system: Staph. saprophyticus ATCC 15305; test: MIC in Nutrient Broth No. 2; type: cell-based, Staphylococcus saprophyticus; conditions: Nutrient Broth No. 2
# Method: as §1, §2
# [6] = system: Strep. agalactiae OCC 182; test: MIC in Nutrient Broth No. 2; type: cell-based, Streptococcus agalactiae; conditions: Nutrient Broth No. 2
# Method: as §1, §2
# Aer. hydrophila = test: MIC in Nutrient Agar; type: cell-based, Aeromonas hydrophila; conditions: Nutrient Agar containing 0.1 μg/ml of inducer; 37° C., 24 hours
# Method: as §3, §4
# C. freundii = test: MIC in Nutrient Agar; type: cell-based, Citrobacter freundii; conditions: Nutrient Agar containing 0.1 μg/ml of inducer; 37° C., 24 hours
# Method: as §3, §4
# Ent. faecalis = test: MIC in Nutrient Agar; type: cell-based, Enterococcus faecalis; conditions: Nutrient Agar containing 0.1 μg/ml of inducer; 37° C., 24 hours
# Method: as §3, §4
# S. epidermidis = test: MIC in Nutrient Agar; type: cell-based, Staphylococcus epidermidis; conditions: 3 strains; Nutrient Agar containing 0.1 μg/ml of inducer; 37° C., 24 hours
# Method: as §3, §4
# S. saprophyticus = test: MIC in Nutrient Agar; type: cell-based, Staphylococcus saprophyticus; conditions: Nutrient Agar containing 0.1 μg/ml of inducer; 37° C., 24 hours
# Method: as §3, §4
# Ps. aeruginosa = test: MIC in Nutrient Agar; type: cell-based; conditions: Nutrient Agar containing 0.1 μg/ml of inducer; 37° C., 24 hours
# Method: as §3, §4
# Bacillus subtilis = test: MIC in Nutrient Agar; type: cell-based; conditions: Nutrient Agar containing 0.1 μg/ml of inducer; 37° C., 24 hours
# Method: as §3, §4
# Salmonella = test: MIC in Nutrient Agar; type: cell-based; conditions: 11 strains; Nutrient Agar containing 0.1 μg/ml of inducer; 37° C., 24 hours
# Method: as §3, §4
# Bacillus cereus = test: MIC in Nutrient Agar; type: cell-based; conditions: Nutrient Agar containing 0.1 μg/ml of inducer; 37° C., 24 hours
# Method: as §3, §4
# Hafnia alvei = test: MIC in Nutrient Agar; type: cell-based; conditions: Nutrient Agar containing 0.1 μg/ml of inducer; 37° C., 24 hours
# Method: as §3, §4
SMILES,MIC ([1]; with inducer 100 μg/ml) [mg/L],MIC ([1]; without inducer) [mg/L],MIC (Ent. aerogenes) [mg/L],MIC (Ser. marcescens) [mg/L],MIC ([2]; with inducer 100 μg/ml) [mg/L],MIC ([2]; without inducer) [mg/L],MIC (Str. pneumoniae) [mg/L],MIC ([4]; with inducer 100 μg/ml) [mg/L],MIC ([4]; without inducer) [mg/L],MIC (Ent. faecium) [mg/L],MIC (Kleb. pneumoniae) [mg/L],MIC ([5]; with inducer 100 μg/ml) [mg/L],MIC ([5]; without inducer) [mg/L],MIC ([6]; with inducer 100 μg/ml) [mg/L],MIC ([6]; without inducer) [mg/L],MIC (Aer. hydrophila) [mg/L],MIC (C. freundii) [mg/L],MIC (Ent. faecalis) [mg/L],MIC (S. epidermidis) [mg/L],MIC (S. saprophyticus) [mg/L],other results
"OC[C@H]1O[C@H](Oc2cc(Cl)ccc2Oc2ccc(Cl)cc2Cl)[C@@H](O)[C@@H](O)[C@@H]1O [α-D-Mannoside, triclosan-α-D-mannopyranoside]",32,32,64,>256,2,4,64,8,8,256,16,32,32,128,128,256,64,256,8,32,inhibition of growth at 64 μg/ml in Nutrient Broth [3]: inhibited; MIC (Ps. aeruginosa): >256 mg/L; MIC (Bacillus subtilis): 256 mg/L; MIC (Salmonella): 16 to 32 mg/L; MIC (Bacillus cereus): 128 mg/L; MIC (Hafnia alvei): 4 mg/L
"OC[C@H]1O[C@@H](Oc2cc(Cl)ccc2Oc2ccc(Cl)cc2Cl)[C@H](O)[C@@H](O)[C@@H]1O [β-D-Glucoside, triclosan-β-D-glucopyranoside]",4,32,32,>256,0.5,0.5,128,0.5,16,>256,4,8,64,128,256,>256,64,>256,8 to 16,32,MIC (Ps. aeruginosa): >256 mg/L; MIC (Bacillus subtilis): 256 mg/L; MIC (Salmonella): 16 to 128 mg/L; MIC (Bacillus cereus): 256 mg/L; MIC (Hafnia alvei): 8 mg/L
"OC[C@H]1O[C@H](Oc2cc(Cl)ccc2Oc2ccc(Cl)cc2Cl)[C@H](O)[C@@H](O)[C@H]1O [α-D-Galactoside, triclosan-α-D-galactopyranoside]",64,32,64,>256,1,1,256,32,16,>256,16,64,64,>256,>256,>256,64,>256,8,32,MIC (Ps. aeruginosa): >256 mg/L; MIC (Bacillus subtilis): 128 mg/L; MIC (Bacillus cereus): >256 mg/L; MIC (Hafnia alvei): 4 mg/L
"OC[C@H]1O[C@H](Oc2cc(Cl)ccc2Oc2ccc(Cl)cc2Cl)[C@H](O)[C@@H](O)[C@@H]1O [α-D-Glucoside, triclosan-α-D-glucopyranoside]",4,2,4,>256,1,1,32,1,1,128,0.5,4,4,128,128,128,4,128,0.5 to 1,4,MIC (Ps. aeruginosa): >256 mg/L; MIC (Bacillus subtilis): 16 mg/L; MIC (Salmonella): 1 to 4 mg/L; MIC (Bacillus cereus): 64 mg/L; MIC (Hafnia alvei): 0.5 mg/L
"O[C@@H]1[C@H](Oc2cc(Cl)ccc2Oc2ccc(Cl)cc2Cl)OC[C@@H](O)[C@H]1O [β-D-Arabinoside, triclosan-β-D-arabinopyranoside]",32,32,64,>256,8,4,64,16,128,256,8,64,64,128,128,256,64,256,16,64,MIC (Ps. aeruginosa): >256 mg/L; MIC (Bacillus subtilis): 256 mg/L; MIC (Salmonella): 32 to 64 mg/L; MIC (Bacillus cereus): 256 mg/L; MIC (Hafnia alvei): 8 mg/L
